The text below walks through data of US11479563B2, “Biphenyl compound or salt thereof” (TAIHO PHARMACEUTICAL CO., LTD., priority 2017, dated 2022).

Structures are written as SMILES. Structures can show the parent of a compound that is named as a salt.

The IC50 is the point on the concentration scale where inhibition reaches its midpoint.

For test [1], the system named is NCI-H146 cells (human small-cell lung cancer cell lines). As to the kind of experiment: Cell-growth inhibition test: NCI-H146 cells. It counts as cell-based. Conditions: Homo sapiens, NCI-H146, read-out: Cell-Growth Inhibition Test: NCI-H146 Cells IC50 (nM). As to the method:
Under the following conditions, an in vitro cell-growth inhibition test was performed with respect to HEL cells (human acute myelocytic leukemia cell lines), NCI-H1417 cells (human small-cell lung cancer cell lines), and NCI-H146 cells (human small-cell lung cancer cell lines).
The cells with the compound of the present invention or with dimethylsulfoxide alone were cultured at 37° C. in a 5% carbon-dioxide-containing incubator for 5 days (HEL cells) or 10 days (NCI-H1417 cells and NCI-H146 cells). After culture, the plate was allowed to stand at room temperature for 30 minutes, and 100 μL of the supernatant was removed from each well to leave 100 μL of the cell culture solution. To each well containing the remaining 100 μL of the cell culture solution, the same amount of CellTiter-Glo 2.0 Assay (Promega, Cat #: G9242) was added. The microplate was shaken with a plate mixer for 1 minute and then allowed to stand in a dark place for 10 minutes. Thereafter, the luminescence intensity of viable cells in each well was measured using a microplate reader (PerkinElmer, EnSpire). […] Cell growth rate (%)=T/C×100 T: The luminescence intensity in a well to which the compound of the present invention was added (count per second) C: The luminescence intensity in a well to which dimethylsulfoxide alone was added (count per second)

Test [2] has as its system HEL cells (human acute myelocytic leukemia cell lines). As to the kind of experiment: cells. Conditions: read-out: Cell-Growth Inhibition Test: HEL Cells IC50 (nM).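 Note: viable cell count by CellTiter-Glo 2.0 luminescence after 5 days of culture at 37 °C, growth expressed relative to DMSO-only wells as 100%.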
For test [3], the system named is NCI-H1417 cells (human small-cell lung cancer cell lines). As to the kind of experiment: cells. Conditions: NCI-H1417, read-out: Cell-Growth Inhibition Test: NCI-H1417 Cells IC50 (nM).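 Note: growth of NCI-H1417 cells over 10 days at 37 °C, read as viable-cell luminescence by CellTiter-Glo 2.0, expressed as % of DMSO-only control wells.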

As to `N#Cc1ccc(-c2cc(CN3C4CCC3C(N)C4)ccc2-c2cc3nnn(CC4(O)CCC4)c3c(Cl)c2F)cc1F` [Example 286, 5′-(((1S,2S,4R)-rel-2-amino-7-azabicyclo[2.2.1]heptan-7-yl)methyl)-2′-(7-chloro-6-fluoro-1-((1-hydroxycyclobutyl)methyl)-1H-benzo[d][1,2,3]triazol-5-yl)-3-fluoro-[1,1′-biphenyl]-4-carbonitrile-isomer-X dihydrochloride], the half-maximal inhibitory concentration (IC50) in test [1] is 0.17 nM; in test [2], 0.036 nM; in test [3], 0.083 nM.

For the compound `CCC(O)(CC)Cn1nnc2cc(-c3ccc(C(=O)N4[C@@H]5CC[C@H]4C[C@@H](N)C5)cc3-c3ccc(C#N)c(F)c3)c(F)c(F)c21` [Example 216, 5′-((3-endo)-3-amino-8-azabicyclo[3.2.1]octane-8-carbonyl)-2′-(1-(2-ethyl-2-hydroxybutyl)-6,7-difluoro-1H-benzo[d][1,2,3]triazol-5-yl)-3-fluoro-[1,1′-biphenyl]-4-carbonitrile], the IC50 in test [1] stood at 5.02 nM; in test [2], 4.19 nM; in test [3] it was 4.4 nM.

As for `Cc1c(F)c(-c2ccc(C(=O)N3C4CCC3C(N)C4)cc2-c2ccc(C#N)c(F)c2)cc2nnn(CC(C)(C)O)c12` [Example 228, 5′-((1S,2S,4R)-rel-2-amino-7-azabicyclo[2.2.1]heptane-7-carbonyl)-3-fluoro-2′-(6-fluoro-1-(2-hydroxy-2-methylpropyl)-7-methyl-1H-benzo[d][1,2,3]triazol-5-yl)-[1,1′-biphenyl]-4-carbonitrile-isomer-X], the IC50 in test [1] was found to be 0.51 nM; in test [2] it was 0.68 nM; in test [3] it was 0.3 nM.

Regarding `Cn1ccc2cc(-c3ccc(C(=O)N4[C@@H]5CC[C@H]4C[C@@H](N)C5)cc3-c3ccc(C#N)c(F)c3)c(F)cc21` [Example 123], the results for the IC50 in test [1], in test [2] and in test [3] were 1.39 nM, 1.39 nM and 3.57 nM, respectively.

Consider `Cc1nn(CC(C)(C)O)c2cc(F)c(-c3ccc(C(=O)N4[C@@H]5CC[C@H]4C[C@@H](N)C5)cc3-c3ccc(C#N)c(F)c3)cc12` [Example 181, 5′-((3-endo)-3-amino-8-azabicyclo[3.2.1]octane-8-carbonyl)-3-fluoro-2′-(6-fluoro-1-(2-hydroxy-2-methylpropyl)-3-methyl-1H-indazol-5-yl)-[1,1′-biphenyl]-4-carbonitrile], for which the figures for the IC50 in test [1], in test [2] and in test [3] were 2.93 nM, 9.06 nM and 4.6 nM, respectively.

`CC(C)(O)Cn1nnc2cc(-c3ccc(C(=O)N4[C@@H]5CC[C@H]4C[C@@H](N)C5)cc3-c3ccc(C#N)c(F)c3)c(F)c(C(F)F)c21` [Example 250, 5′-((3-endo)-3-amino-8-azabicyclo[3.2.1]octane-8-carbonyl)-2′-(7-(difluoromethyl)-6-fluoro-1-(2-hydroxy-2-methylpropyl)-1H-benzo[d][1,2,3]triazol-5-yl)-3-fluoro-[1,1′-biphenyl]-4-carbonitrile]: the IC50 in test [1] worked out at 9.3 nM; in test [2] it was 2.36 nM; in test [3], 1.2 nM.

As for `CCC(O)(CC)Cn1ncc2cc(-c3ccc(C(=O)N4C5CCC4C(N)C5)cc3-c3ccc(C#N)c(F)c3)c(F)cc21` [Example 206, 5′-((1S,2S,4R)-rel-2-amino-7-azabicyclo[2.2.1]heptane-7-carbonyl)-2′-(1-(2-ethyl-2-hydroxybutyl)-6-fluoro-1H-indazol-5-yl)-3-fluoro-[1,1′-biphenyl]-4-carbonitrile-isomer-X], the IC50 in test [1] was 1.09 nM; in test [2], 0.4 nM; in test [3], 0.95 nM.

On to `N#Cc1ccc(-c2cc(C(=O)N3C4CCC3C(N)C4)ccc2-c2cc3nnn(CC4(O)CCC4)c3c(C(F)F)c2F)cc1F` [Example 260, 5′-((1S,2S,4R)-rel-2-amino-7-azabicyclo[2.2.1]heptane-7-carbonyl)-2′-(7-(difluoromethyl)-6-fluoro-1-((1-hydroxycyclobutyl)methyl)-1H-benzo[d][1,2,3]triazol-5-yl)-3-fluoro-[1,1′-biphenyl]-4-carbonitrile-isomer-X], for which the half-inhibitory concentration (IC50) worked out at 0.48 nM in test [1], 0.13 nM in test [2] and 0.13 nM in test [3].

As to `CC(C)(O)Cn1nnc2cc(-c3ccc(CN4C5CCC4C(N)C5)cc3-c3ccc(C#N)c(F)c3)c(F)c(Br)c21` [Example 294, 5′-(((1S,2S,4R)-rel-2-amino-7-azabicyclo[2.2.1]heptan-7-yl)methyl)-2′-(7-bromo-6-fluoro-1-(2-hydroxy-2-methylpropyl)-1H-benzo[d][1,2,3]triazol-5-yl)-3-fluoro-[1,1′-biphenyl]-4-carbonitrile-isomer-X dihydrochloride], the IC50 in test [1] stood at 4.05 nM; in test [2], 0.04 nM; in test [3], 0.055 nM.

With `N#Cc1ccc(-c2cc(C(=O)N3C4CCC3C(N)C4)ccc2-c2cc3nnn(CC4(O)CCC4)c3c(F)c2F)cc1F` [Example 254, 5′-((1S,2S,4R)-rel-2-amino-7-azabicyclo[2.2.1]heptane-7-carbonyl)-2′-(6,7-difluoro-1-((1-hydroxycyclobutyl)methyl)-1H-benzo[d][1,2,3]triazol-5-yl)-3-fluoro-[1,1′-biphenyl]-4-carbonitrile-isomer-X], the IC50 in test [1] was 0.36 nM; in test [2], 0.2 nM; in test [3], 0.18 nM.

As for `Cc1noc2cc(-c3ccc(C(=O)N4C5CCC4C(N)C5)cc3-c3ccc(C#N)c(F)c3)c(F)cc12` [Example 202, 5′-((1S,2S,4R)-rel-2-amino-7-azabicyclo[2.2.1]heptane-7-carbonyl)-3-fluoro-2′-(5-fluoro-3-methylbenzo[d]isoxazol-6-yl)-[1,1′-biphenyl]-4-carbonitrile-isomer-X], the IC50 was 0.73 nM in test [1], 0.24 nM in test [2] and 0.62 nM in test [3].

As to `Cc1c(F)c(-c2ccc(C(=O)N3[C@@H]4CC[C@H]3C[C@@H](N)C4)cc2-c2ccc(C#N)c(F)c2)cc2nnn(CC(C)(C)O)c12` [Example 240, 5′-((3-endo)-3-amino-8-azabicyclo[3.2.1]octane-8-carbonyl)-3-fluoro-2′-(6-fluoro-1-(2-hydroxy-2-methylpropyl)-7-methyl-1H-benzo[d][1,2,3]triazol-5-yl)-[1,1′-biphenyl]-4-carbonitrile], the IC50 in test [1] was 4.81 nM; in test [2], 4.2 nM; in test [3], 2.55 nM.

For the compound `N#Cc1ccc(-c2cc(C(=O)N3[C@@H]4CC[C@H]3C[C@@H](N)C4)ccc2-c2cc3nnn(CC4(O)CCC4)c3c(Cl)c2F)cc1F` [Example 259, 5′-((3-endo)-3-amino-8-azabicyclo[3.2.1]octane-8-carbonyl)-2′-(7-chloro-6-fluoro-1-((1-hydroxycyclobutyl)methyl)-1H-benzo[d][1,2,3]triazol-5-yl)-3-fluoro-[1,1′-biphenyl]-4-carbonitrile], the IC50 in test [1] is 2.08 nM; in test [2] it was 0.58 nM; in test [3], 0.46 nM.

On to `COCCc1ccc(-c2ccc(C(=O)N3[C@@H]4CC[C@H]3C[C@@H](N)C4)cc2-c2ccc(C#N)c(F)c2)c(F)c1` [Example 22], for which the IC50 in test [1] was 15 nM; in test [2], 3.51 nM; in test [3], 8.2 nM.
